Assay results from ChEMBL document CHEMBL3885861, “Open TG-GATES”.

Species on record: Rattus norvegicus
Assay: Open TG-GATES - Regimen: Single
Assay type: toxicity, organism-based, Sprague-Dawley
Set-up: regimen Single, gender Male, age 6 weeks
Conditions: in vivo, po, 20 mg/kg, route gavage, dose level High; for KIDNEY_L / KIDNEY_R / KIDNEY_TOTAL: tissue Kidney; for LIVER: tissue Liver; for ALP / ALT / AST / BUN / CRE / Ca / Cl / DBIL / GLC / IP / K / LDH / Na / PL / RALB / TBIL / TC / TG / TP / gamma-GTP: tissue Plasma

For `OCCN1CCN(CCCN2c3ccccc3Sc3ccc(C(F)(F)F)cc32)CC1` [FLUPHENAZINE], the TERMINAL_BW (3 h) was 197.6 g, the APTT (3 h, tissue Blood) was 16.7 s and the Bas (3 h, tissue Blood) was 0%. It also gave an Eos (3 h, tissue Blood) of 0.8%, a Fbg (3 h, tissue Blood) of 205.4 mg/dL and a Hb (3 h, tissue Blood) of 12.9 g/dL. It also gave a Lym (3 h, tissue Blood) of 81.6%, an MCH (3 h, tissue Blood) of 21.4 pg and an MCHC (3 h, tissue Blood) of 33%. For the same compound, the MCV (3 h, tissue Blood) was 64.9 fL, the Mono (3 h, tissue Blood) was 4.4% and the Neu (3 h, tissue Blood) was 13.6%. It also gave a PT (3 h, tissue Blood) of 12.7 s, a Plat (3 h, tissue Blood) of 111.6 x10_4/uL and an RBC (3 h, tissue Blood) of 600.6 x10_4/ul. For the same compound, the Ret (3 h, tissue Blood) was 9.2%, the WBC (3 h, tissue Blood) was 64.5 x10_2/uL and the KIDNEY_L (3 h) was 0.9 g. It also gave a KIDNEY_R (3 h) of 0.9 g, a KIDNEY_TOTAL (3 h) of 1.8 g and an LIVER (3 h) of 9.2 g. The ALP (3 h) was 781.6 IU/L, the ALT (3 h) was 29.4 IU/L and the AST (3 h) was 58 IU/L. The BUN (3 h) was 10 mg/dL, the CRE (3 h) was 0.5 mg/dL and the Ca (3 h) was 10.7 mg/dL. For the same compound, the Cl (3 h) was 107.4 meq/L, the DBIL (3 h) was 0.006 mg/dL and the GLC (3 h) was 225.6 mg/dL. It also gave an IP (3 h) of 10.6 mg/dL, a K (3 h) of 4.3 meq/L and an LDH (3 h) of 145.2 IU/L. It also gave a Na (3 h) of 139 meq/L, a PL (3 h) of 132 mg/dL and an RALB (3 h) of 3.7 g/dL. The TBIL (3 h) was 0.3 mg/dL, the TC (3 h) was 74.6 mg/dL and the TG (3 h) was 33.8 mg/dL. The TP (3 h) was 5.3 g/dL, the gamma-GTP (3 h) was 1.6 IU/L and the TERMINAL_BW (6 h) was 194.7 g. The APTT (6 h, tissue Blood) was 16.3 s, the Bas (6 h, tissue Blood) was 0% and the Eos (6 h, tissue Blood) was 0.4%. For the same compound, the Fbg (6 h, tissue Blood) was 205.8 mg/dL, the Hb (6 h, tissue Blood) was 12.8 g/dL and the Lym (6 h, tissue Blood) was 79%. For the same compound, the MCH (6 h, tissue Blood) was 21.9 pg, the MCHC (6 h, tissue Blood) was 32.9% and the MCV (6 h, tissue Blood) was 66.4 fL. It also gave a Mono (6 h, tissue Blood) of 6.4%, a Neu (6 h, tissue Blood) of 14.6% and a PT (6 h, tissue Blood) of 12.3 s. The Plat (6 h, tissue Blood) was 100.1 x10_4/uL, the RBC (6 h, tissue Blood) was 587.4 x10_4/ul and the Ret (6 h, tissue Blood) was 7.7%. It also gave a WBC (6 h, tissue Blood) of 59.6 x10_2/uL, a KIDNEY_L (6 h) of 0.9 g and a KIDNEY_R (6 h) of 0.9 g. The KIDNEY_TOTAL (6 h) was 1.8 g, the LIVER (6 h) was 8.8 g and the ALP (6 h) was 839.8 IU/L. For the same compound, the ALT (6 h) was 32 IU/L, the AST (6 h) was 60.2 IU/L and the BUN (6 h) was 10.6 mg/dL. It also gave a CRE (6 h) of 0.5 mg/dL, a Ca (6 h) of 10 mg/dL and a Cl (6 h) of 107.4 meq/L. The DBIL (6 h) was 0.018 mg/dL, the GLC (6 h) was 215.2 mg/dL and the IP (6 h) was 9.9 mg/dL. It also gave a K (6 h) of 4.3 meq/L, an LDH (6 h) of 171.6 IU/L and a Na (6 h) of 138 meq/L. It also gave a PL (6 h) of 125.6 mg/dL, an RALB (6 h) of 3.5 g/dL and a TBIL (6 h) of 0.4 mg/dL. It also gave a TC (6 h) of 76 mg/dL, a TG (6 h) of 16.6 mg/dL and a TP (6 h) of 5.3 g/dL. It also gave a gamma-GTP (6 h) of 1.2 IU/L, a TERMINAL_BW (9 h) of 190.3 g and an APTT (9 h, tissue Blood) of 16.3 s. It also gave a Bas (9 h, tissue Blood) of 0%, an Eos (9 h, tissue Blood) of 0.2% and a Fbg (9 h, tissue Blood) of 214.8 mg/dL. For the same compound, the Hb (9 h, tissue Blood) was 12.7 g/dL, the Lym (9 h, tissue Blood) was 76.8% and the MCH (9 h, tissue Blood) was 21.3 pg. The MCHC (9 h, tissue Blood) was 33.1%, the MCV (9 h, tissue Blood) was 64.4 fL and the Mono (9 h, tissue Blood) was 6%. The Neu (9 h, tissue Blood) was 16.4%, the PT (9 h, tissue Blood) was 12.3 s and the Plat (9 h, tissue Blood) was 113.7 x10_4/uL. For the same compound, the RBC (9 h, tissue Blood) was 594 x10_4/ul, the Ret (9 h, tissue Blood) was 8.4% and the WBC (9 h, tissue Blood) was 72.7 x10_2/uL. The KIDNEY_L (9 h) was 0.9 g, the KIDNEY_R (9 h) was 0.9 g and the KIDNEY_TOTAL (9 h) was 1.8 g. The LIVER (9 h) was 7.8 g, the ALP (9 h) was 741.8 IU/L and the ALT (9 h) was 28.8 IU/L. For the same compound, the AST (9 h) was 56 IU/L, the BUN (9 h) was 9.6 mg/dL and the CRE (9 h) was 0.5 mg/dL. The Ca (9 h) was 10 mg/dL, the Cl (9 h) was 107 meq/L and the DBIL (9 h) was 0.03 mg/dL. The GLC (9 h) was 197 mg/dL, the IP (9 h) was 9.6 mg/dL and the K (9 h) was 4.2 meq/L. For the same compound, the LDH (9 h) was 157.8 IU/L, the Na (9 h) was 139.2 meq/L and the PL (9 h) was 135 mg/dL. For the same compound, the RALB (9 h) was 3.7 g/dL, the TBIL (9 h) was 0.3 mg/dL and the TC (9 h) was 89 mg/dL. For the same compound, the TG (9 h) was 11.2 mg/dL, the TP (9 h) was 5.3 g/dL and the gamma-GTP (9 h) was 1.2 IU/L. It also gave a TERMINAL_BW (24 h) of 176 g, an APTT (24 h, tissue Blood) of 16.6 s and a Bas (24 h, tissue Blood) of 0%. The Eos (24 h, tissue Blood) was 0.2%, the Fbg (24 h, tissue Blood) was 206.6 mg/dL and the Hb (24 h, tissue Blood) was 14.7 g/dL. For the same compound, the Ht (24 h, tissue Blood) was 44.3%, the Lym (24 h, tissue Blood) was 81.2% and the MCH (24 h, tissue Blood) was 21.5 pg. It also gave an MCHC (24 h, tissue Blood) of 33.2%, an MCV (24 h, tissue Blood) of 64.8 fL and a Mono (24 h, tissue Blood) of 7.6%. It also gave a Neu (24 h, tissue Blood) of 10.6%, a PT (24 h, tissue Blood) of 12.2 s and a Plat (24 h, tissue Blood) of 125.2 x10_4/uL. For the same compound, the RBC (24 h, tissue Blood) was 684 x10_4/ul, the Ret (24 h, tissue Blood) was 6.6% and the WBC (24 h, tissue Blood) was 78.6 x10_2/uL. For the same compound, the KIDNEY_L (24 h) was 0.9 g, the KIDNEY_R (24 h) was 0.9 g and the KIDNEY_TOTAL (24 h) was 1.8 g. It also gave an LIVER (24 h) of 7.5 g, an ALP (24 h) of 847.4 IU/L and an ALT (24 h) of 27.8 IU/L. The AST (24 h) was 69.6 IU/L, the BUN (24 h) was 23.8 mg/dL and the CRE (24 h) was 0.5 mg/dL. The Ca (24 h) was 10.5 mg/dL, the Cl (24 h) was 105.4 meq/L and the DBIL (24 h) was 0.012 mg/dL. It also gave a GLC (24 h) of 176 mg/dL, an IP (24 h) of 9 mg/dL and a K (24 h) of 4.9 meq/L. For the same compound, the LDH (24 h) was 171.6 IU/L, the Na (24 h) was 138.6 meq/L and the PL (24 h) was 138.8 mg/dL. For the same compound, the RALB (24 h) was 4.3 g/dL, the TBIL (24 h) was 0.3 mg/dL and the TC (24 h) was 87.6 mg/dL. For the same compound, the TG (24 h) was 44.6 mg/dL, the TP (24 h) was 6.1 g/dL and the gamma-GTP (24 h) was 1.2 IU/L.
